# Measured values reported in patent US5688807A, “Method for treating 5HT2B receptor related conditions” (Eli Lilly and Company, priority 1995, dated 1997).
# Counter-ions that a name gives are not always drawn. Like-named read-outs stand apart in the source and are kept apart here.
# Experiments:
# [1] = tested on: distal colon; assay: Functional in vitro assay: antagonism of serotonin contraction of rat distal colon longitudinal muscle; settings: vs serotonin
# Description: Functional In vitro Assay:
# Sprague-Dawley rats (200-250g; Laboratory Supply, Indianapolis, Ind.) were sacrificed by cervical dislocation and 8 cm segment of distal colon was removed and washed in ice cold modified Kreb's solution of the following composition (millimolar): Nacl, 118.2; Kcl, 4.6; Cacl2. H2 O, 1.6; KH2 PO4, 1.2; MgSO4, 1.2; dextrose, 10.0; and NaHCO3, 24.8. The colon was mounted on a glass rod and the longitudinal muscle layer with attached myenteric plexi was removed and mounted in organ baths, containing above described Kreb's solution maintained at 37° C. and equilibrated with 95% O2 and 5% CO2. Tissues were placed under 2 g tension and allowed to stabilize for 1 hour. Isometric contractions were recorded as changes in grams of force using grass FT03 transducers and MI^2 - computerized dynograph system. Cumulative concentration-response curves for serotonin were obtained by a stepwise increase in concentration after washing out the preceding concentration for 10-15 minutes. Each agonist concentration remained in contact with the tissue for 5 minutes. Maximum response to each concentration was determined and digitized. EC50 values were taken as the concentration of agonist that produced half maximal contraction. After control responses were obtained, tissues were incubated with an appropriate concentration of antagonist for 15 minutes. Response to serotonin were then repeated in the presence of an antagonist. Concentration-response utilized only one concentration of antagonist per tissue. Apparent antagonist dissociation constants (KB) were determined for each concentration of antagonist according to the following equation:
# KB =[B]/(dose ratio-1), where [B] is the concentration of the antagonist and dose ratio is the ED50 of the agonist in the presence of antagonist divided by the control ED50. The results were expressed as the negative logarithm of the KB (i.e., -log KB) (Br. J. Pharmacol. Methods 4:4165, (1980).
# The functional in vitro method described supra. was used to test compounds of this invention. Values are expressed as pKi and pA2 (-log KB). The following table illustrates the results obtained when the compounds were tested using the Radioligand assay supra. (pKi) and the functional in vitro method described supra. (pA2)
# [2] = target: 5-HT2B receptor (rat stomach fundus) (Rattus norvegicus, UniProt P30994);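 further: isometric contraction of isolated male Wistar rat stomach fundus strips, serotonin concentration-response curves after antagonist incubation, KB from dose ratio of agonist potency versus control curve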
# 5-HT2B receptor (rat stomach fundus), sequence (P30994 whole entry): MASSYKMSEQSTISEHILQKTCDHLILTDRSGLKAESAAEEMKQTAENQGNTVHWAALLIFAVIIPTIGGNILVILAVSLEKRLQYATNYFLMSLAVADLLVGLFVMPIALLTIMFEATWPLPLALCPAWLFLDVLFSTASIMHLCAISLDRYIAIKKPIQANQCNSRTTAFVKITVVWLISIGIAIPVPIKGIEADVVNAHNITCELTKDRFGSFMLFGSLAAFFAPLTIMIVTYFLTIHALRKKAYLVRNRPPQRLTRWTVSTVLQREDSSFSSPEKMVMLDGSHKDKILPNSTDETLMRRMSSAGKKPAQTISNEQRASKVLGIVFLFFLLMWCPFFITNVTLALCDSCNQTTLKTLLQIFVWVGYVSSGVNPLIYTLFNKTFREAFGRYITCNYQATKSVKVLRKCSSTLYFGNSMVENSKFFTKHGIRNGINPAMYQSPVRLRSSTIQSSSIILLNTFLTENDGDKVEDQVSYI
# [3] = target: T1, 5-HT2A receptor (rat jugular vein) (Rattus norvegicus, UniProt P14842); assay: Antagonism of serotonin response in rat jugular vein (apparent antagonist dissociation constant); settings: vs serotonin, ± standard error, read-out: 5-HT2A (Jugular) -log KB (converted)
# T1 construct: rat jugular vein which is mediated by 5-HT2A receptors; from tissue; host or cells: rat jugular vein
# T1 sequence (P14842 whole entry): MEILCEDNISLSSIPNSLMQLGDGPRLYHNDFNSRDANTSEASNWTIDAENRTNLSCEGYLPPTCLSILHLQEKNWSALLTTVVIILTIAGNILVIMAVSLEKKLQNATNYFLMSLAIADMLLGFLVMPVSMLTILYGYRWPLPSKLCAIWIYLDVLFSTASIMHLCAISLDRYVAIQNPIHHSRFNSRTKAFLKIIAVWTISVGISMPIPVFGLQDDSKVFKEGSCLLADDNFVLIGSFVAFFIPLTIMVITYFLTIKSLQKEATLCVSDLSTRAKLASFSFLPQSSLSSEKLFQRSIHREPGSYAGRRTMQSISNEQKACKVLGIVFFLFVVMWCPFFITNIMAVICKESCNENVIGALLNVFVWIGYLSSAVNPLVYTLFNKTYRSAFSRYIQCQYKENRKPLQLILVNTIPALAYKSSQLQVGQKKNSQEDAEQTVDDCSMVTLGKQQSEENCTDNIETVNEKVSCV
# Description: Apparent antagonist dissociation constants (KB) were determined for each concentration of antagonist according to the following equation: […]
# where [B] is the concentration of the antagonist and dose ratio is the ED50 of the agonist in the presence of the antagonist divided by the control ED50. Generally, parallel shifts in the concentration-response curves occurred in the presence of antagonists. The results were expressed as the negative logarithm of the KB (i.e., -log KB). Calculations were completed using known methods.
# The values in Table II are expressed as -log KB ± standard error (number of data points). The 5-HT2B value represents the negative log of the concentration of an antagonist that will produce a two fold dextral shift in the concentration response curve to serotonin in the rat stomach fundus which is mediated by 5-HT2B receptors. Likewise, the 5-HT2A value represents the negative log of the concentration of an antagonist that will produce a two fold dextral shift in the concentration response curve to serotonin in the rat jugular vein which is mediated by 5-HT2A receptors. The blank values in Table II indicate that the compound was not tested in the indicated assay.
# [4] = target: rat 5-HT2B receptor (Rattus norvegicus, UniProt P30994); assay: biochemical; format: binding;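 further: displacement of [3H]5-HT from membranes of suspension cells carrying cloned rat 5-HT2B receptor, incubated 15 min at 37 °C or 2 h at 0 °C, filter-bound radioactivity counted by scintillation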
# rat 5-HT2B receptor, sequence (P30994 whole entry): as the sequence (P30994 whole entry) above
# [5] = target: Human 5-HT2A (Homo sapiens, UniProt P28223); assay: [125I]DOI radioligand binding, human 5-HT2A
# Human 5-HT2A, sequence (P28223 whole entry): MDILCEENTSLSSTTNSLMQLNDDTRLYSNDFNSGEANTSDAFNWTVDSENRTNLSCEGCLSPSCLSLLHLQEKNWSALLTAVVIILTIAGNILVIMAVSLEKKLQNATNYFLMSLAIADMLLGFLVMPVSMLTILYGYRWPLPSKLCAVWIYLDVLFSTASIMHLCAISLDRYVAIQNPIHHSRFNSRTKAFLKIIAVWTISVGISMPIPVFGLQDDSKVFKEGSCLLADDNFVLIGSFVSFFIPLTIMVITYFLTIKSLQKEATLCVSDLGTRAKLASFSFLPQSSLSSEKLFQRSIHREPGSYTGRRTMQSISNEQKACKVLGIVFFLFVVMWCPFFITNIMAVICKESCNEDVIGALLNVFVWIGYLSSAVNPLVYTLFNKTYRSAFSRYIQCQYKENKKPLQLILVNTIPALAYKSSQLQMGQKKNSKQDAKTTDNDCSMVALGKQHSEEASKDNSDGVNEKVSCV
# [6] = target: Rat 5-HT2A (Rattus norvegicus, UniProt P14842); assay: [125I]DOI radioligand binding, rat 5-HT2A; settings: AVG
# Rat 5-HT2A, sequence (P14842 whole entry): as the sequence (P14842 whole entry) above
# [7] = target: T2, Human 5-HT2B (Homo sapiens, UniProt P41595); assay: [3H]Serotonin radioligand binding, human 5-HT2B; settings: [3H]Serotonin; 5-HT2B cells; AVG; read-out: Ki Human 5-HT2B;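 further: competition of tritiated serotonin binding to cell membranes, bound radioactivity on filters counted by liquid scintillation, IC50 from logistic fits converted to Ki with the Cheng-Prusoff equation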
# T2 construct: expressed in transfected cells
# T2 sequence (P41595 whole entry): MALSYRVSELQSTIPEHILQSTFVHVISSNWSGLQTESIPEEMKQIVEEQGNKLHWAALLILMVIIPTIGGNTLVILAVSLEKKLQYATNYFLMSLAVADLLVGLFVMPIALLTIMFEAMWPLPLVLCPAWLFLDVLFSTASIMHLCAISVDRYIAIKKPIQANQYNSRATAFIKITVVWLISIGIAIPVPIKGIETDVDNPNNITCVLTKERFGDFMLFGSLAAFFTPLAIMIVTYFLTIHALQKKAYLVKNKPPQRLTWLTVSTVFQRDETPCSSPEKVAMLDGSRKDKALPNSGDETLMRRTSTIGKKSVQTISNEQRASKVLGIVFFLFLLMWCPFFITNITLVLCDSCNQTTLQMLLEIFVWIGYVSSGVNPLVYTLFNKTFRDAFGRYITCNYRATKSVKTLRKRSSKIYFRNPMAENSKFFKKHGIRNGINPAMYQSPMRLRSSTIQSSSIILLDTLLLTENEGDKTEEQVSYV
# [8] = rat stomach fundus, vs serotonin, ± standard error, read-out: 5-HT2B (Fundus) -log KB (converted)
# [9] = [125I]DOI, AVG, read-out: Ki Human 5-HT2A
# [10] = Ki Rat 5-HT2B, [3H]Serotonin, 5-HT2B cells, AVG
# [11] = [3H]Serotonin, 5-HT2B cells, AVG, read-out: Ki Rat 5-HT2B
smiles,measurement,setting,value
"Clc1ccc2[nH]c3c(c2c1)CCNC3 [6-chloro-1,2,3,4-tetrahydro-9H-pyrido[3,4b]-indole]",pA2 (-log KB),[1],7.2
"COc1ccc(CC2NCCc3c2[nH]c2cc(C)c(C)cc32)cc1OC (stereo not drawn) [Example 16, 6,7-dimethyl-1,2,3,4-tetrahydro-1-[(3,4-dimethoxyphenyl)methyl]-9H-pyrido[3,4b]indole]",Kb,[2],0.195 nM
same,Kb,[3],7.08 nM
"CCc1ccc2[nH]c3c(c2c1)CCNC3Cc1ccc(OC)c(OC)c1 (stereo not drawn) [Example 17, 6-ethyl-1,2,3,4-tetrahydro-1-[(3,4-dimethoxyphenyl)methyl]-9H-pyrido[3,4b]indole]",Kb,[2]; [8],0.347 nM
same,pA2 (-log KB),[1],6.2
same,Kb,[3],21.9 nM
"COc1ccc(CC2NCCc3c2[nH]c2ccc(C)cc32)cc1OC (stereo not drawn) [Example 20, 6-methyl-1,2,3,4-tetrahydro-1-[(3,4-dimethoxyphenyl)methyl]-9H-pyrido[3,4b]indole hydrochloride]",pA2 (-log KB),[1],7.8
same,Kb,[3],61.7 nM
"COc1ccc(CC2NCCc3c2[nH]c2ccc(C)cc32)c(OC)c1OC.Cl (stereo not drawn) [Example 22, 6-methyl-1-[(2,3,4-trimethoxyphenyl)-methyl]-1,2,3,4-tetrahydro-9H-pyrido[3,4-b]indole hydrochloride]",Kb,[2]; [8],6.17 nM
same,pA2 (-log KB),[1],4.8
same,Ki,"[4]; Radioligand assay, Table III, read-out: pKi (converted)",5.37 nM
"CCCOc1ccc(CC2NCCc3c2[nH]c2ccc(C)cc32)cc1OC (stereo not drawn) [Example 31, 6-methyl-1-[(3-methoxy-4-propoxyphenyl)-methyl]-1,2,3,4-tetrahydro-9H-pyrido[3,4-b]indole]",Kb,[2]; [8],1.12 nM
same,Kb,[3],51.3 nM
"COc1ccc(CC2NCCc3c2[nH]c2ccc(C)cc32)c(Cl)c1OC (stereo not drawn) [Example 36, 6-methyl-1-[(2-chloro-3,4-dimethoxyphenyl)-methyl]-1,2,3,4-tetrahydro-9H-pyrido[3,4-b]indole hydrochloride]",Kb,[2]; read-out: 5-HT2B (Fundus) -log KB (converted),0.158 nM
same,Kb,[3],7.24 nM
"Cc1ccc2c3c([nH]c2c1C)CNCC3 [Example 72, 7,8-dimethyl-1,2,3,4-tetrahydro-9H-pyrido[3,4b]-indole]",pA2 (-log KB),[1],7.5
same,pKi,"[4]; Radioligand assay, Table III",7.8
"Cc1ccc2c3c([nH]c2c1Cl)CNCC3 [Example 76, 7-methyl-8-chloro-1,2,3,4-tetrahydro-9H-pyrido[3,4b]-indole]",pA2 (-log KB),[1],8.3
CC(C)n1cc2c3c(cccc31)C1CC(C(=O)NC3CCCCC3O)CN(C)C1C2 (stereo not drawn) [drawing 84],Ki,[5]; [9],74.5 nM
same,Ki,[6],8.91 nM
same,Ki,[4]; [10],10.2 nM
CC(C)n1cc2c3c(cccc31)C1CC(C(=O)NC3CCCCC3O)CN(C)C1C2 (stereo not drawn) [drawing 85],Ki,[5]; [9],108 nM
same,Ki,[6],12.4 nM
same,Ki,[4]; [10],11.4 nM
CC(C)n1cc2c3c(cccc31)C1CC(C(=O)NC3CCCCC3O)CN(C)C1C2 (stereo not drawn) [drawing 86],Ki,[5]; [9],15.8 nM
same,Ki,[6],2.39 nM
same,Ki,[4]; [10],8.61 nM
CC(C)n1cc2c3c(cccc31)C1CC(C(=O)NC3CCCCC3O)CN(C)C1C2 (stereo not drawn) [drawing 87],Ki,[5]; [9],18.6 nM
same,Ki,[6],2.44 nM
same,Ki,[4]; [10],9.35 nM
CCc1ccc2[nH]c3c(c2c1)CCNC3Cc1ccc(OC)c(OC)c1 (stereo not drawn) [drawing 143],Ki,[5],23.4 nM
same,Ki,[7],1.5 nM
same,Ki,[4]; [11],8.16 nM
Cc1cc(Br)c2[nH]c3c(c2c1)CCNC3 [drawing 168],Ki,[5],41.7 nM
same,Ki,[6],47 nM
Cc1ccc2c3c([nH]c2c1Cl)CNCC3 [drawing 177],Ki,[5],20.6 nM
same,Ki,[7],2.68 nM
same,Ki,[6],15.5 nM
same,Ki,[4]; [11],2.69 nM
